The nature of series [1]: Cytotoxicity on uninfected Huh-7 cells (WST-8, crystal violet). Conditions: human, uninfected Huh-7 cells. A general note: Tetrazolium assays rely on reduction of a dye to a coloured formazan, in cell work by metabolically active cells.
Method: The toxicity of the compounds at the same concentration was tested on the same cells in parallel.
Cytotoxic effects were evaluated on uninfected cells using the WST-8 assay (Orangu, Cell Guidance Systems, Cambridge, UK) and the crystal violet assay [23]. […] Huh-7, MDCK, and Vero TMPRSS cells were seeded at 1 × 10^4, 1.5 × 10^4, and 1.2 × 10^4 cells/well, respectively, and incubated for 48 h (Huh-7 and MDCK) or 24 h (VERO TMPRSS), following conditions matching those of the corresponding antiviral assays in terms of timing and culture medium. At the end of incubation, the medium was replaced with a 10% WST-8 solution in DMEM and incubated for 1 h at 37 °C. Optical density (OD) was then measured at 450 nm using a Varioskan LUX plate reader (ThermoFisher Scientific, Milano, Italy). Subsequently, cells were fixed with 4% buffered formalin solution (Merck®, Darmstadt, Germany), stained with 1% crystal violet (Merck®, Darmstadt, Germany), and the dye was solubilized in 30% acetic acid for 30 min under shaking. OD was then measured at 595 nm as an additional readout of cell viability. The percentage of viability at each concentration was calculated using the formula:% viability = 100 × (ODcompound/ODuntreated control) where ODcompound and ODuntreated are the OD of the cells treated with compound or DMSO, respectively.
The CC50 value was determined by nonlinear regression analysis on GraphPad Prism 7 (San Diego, CA, USA).
For series [2], the system named is K-562 (leukemia cell line). Put plainly: NCI-60 single-dose assay. The format is cell-based. Conditions: Homo sapiens, K562, read-out: growth inhibition (GI%) and cytotoxicity (negative values). The text has this:
We first evaluated the cytotoxic activity of tricyclic-pyrrole carboxamides 1–20 using the NCI-60 cell line panel, representing nine different human cancers: leukemia, melanoma, and cancers of the lung, colon, central nervous system (CNS), ovary, kidney, prostate, and breast (the one-dose graph for compounds 1–20 is reported in Supplementary Materials, Figures S43–S62). Compounds 1, 5, 10, 11, 17, and 20 satisfied pre-determined threshold inhibition criteria in a minimum number of cell lines; therefore, they were also tested in the full five-dose assay (Figures S63–S68 in the Supplementary Materials).

For series [3], the system named is RPMI-8226 (leukemia cell line). Put plainly: NCI-60 single-dose assay. The format is cell-based, human. Conditions: Homo sapiens, RPMI-8226, read-out: growth inhibition (GI%) and cytotoxicity (negative values). Put shortly:
(§1)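 Cytotoxicity was screened at a single dose across the NCI-60 human tumour cell panel, which covers leukemia, melanoma and lung, colon, CNS, ovarian, renal, prostate and breast cancers.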

For series [4], the system named is UACC-62 (melanoma cell line). Kind of series: NCI-60 single-dose assay. The format is cell-based, human. Conditions: Homo sapiens, UACC-62, read-out: growth inhibition (GI%) and cytotoxicity (negative values). Put shortly:
as §1

The subject of series [5] is HT29 (colon cancer cell line). Kind of series: NCI-60 single-dose assay. The format is cell-based, human. Conditions: Homo sapiens, HT-29, read-out: growth inhibition (GI%) and cytotoxicity (negative values). Put shortly:
as §1

Series [6] has as its system LOX IMVI (melanoma cell line). Put plainly: NCI-60 single-dose assay. The format is cell-based, human. Conditions: Homo sapiens, LOX IMVI, read-out: growth inhibition (GI%) and cytotoxicity (negative values). Put shortly: as §1
Series [7] has as its system HCT-116 (colon cancer cell line). Put plainly: NCI-60 single-dose assay. It counts as cell-based, human. Conditions: Homo sapiens, HCT-116, read-out: growth inhibition (GI%) and cytotoxicity (negative values). Put shortly: as §1
The test system of series [8] is SW-620 (colon cancer cell line). Kind of series: NCI-60 single-dose assay. It counts as cell-based, human. Conditions: Homo sapiens, SW-620, read-out: growth inhibition (GI%) and cytotoxicity (negative values). Put shortly: as §1
Series [9] deals with UACC-257 (melanoma cell line). Kind of series: NCI-60 single-dose assay. It counts as cell-based, human. Conditions: Homo sapiens, UACC-257, read-out: growth inhibition (GI%) and cytotoxicity (negative values). Put shortly:
as §1

Series [10] has as its system MOLT-4 (leukemia cell line). Put plainly: NCI-60 single-dose assay. The format is cell-based, human. Conditions: Homo sapiens, MOLT-4, read-out: growth inhibition (GI%) and cytotoxicity (negative values). Put shortly: as §1
The test system of series [11] is HCC-2998 (colon cancer cell line). Kind of series: NCI-60 single-dose assay. The format is cell-based, human. Conditions: for inhibition at 10 µM: Homo sapiens, HCC 2998, read-out: growth inhibition (GI%) and cytotoxicity (negative values). Put shortly:
as §1

The test system of a further series is SR (leukemia cell line). Kind of series: NCI-60 single-dose assay. It counts as cell-based, human. Conditions: Homo sapiens, read-out: growth inhibition (GI%) and cytotoxicity (negative values). Put shortly:
as §1

For series [12], the system named is HL-60(TB) (leukemia cell line). Kind of series: NCI-60 single-dose assay. It counts as cell-based, human. Conditions: Homo sapiens, HL-60, read-out: growth inhibition (GI%) and cytotoxicity (negative values).
Series [13] can be described thus: in vitro. Conditions: African green monkey.
The test system of series [14] is IAV strain A/PR/8/34 (H1N1). Put plainly: microbe, parasite or virus in culture. Conditions: Influenza A virus, MDCK, read-out: IAV/MDCK EC50.
A short description of series [15]: in vitro. Conditions: dog.
For series [16], the system named is IAV strain A/PR/8/34 (H1N1). Conditions: preliminary screening.
Series [17] deals with ZIKV, strain Brazil/2016/INMI1. Kind of series: ZIKV viral yield reduction assay on Huh-7 cells. It counts as cell-based, Zika virus. Conditions: for EC50: Zika virus. Put shortly: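 Huh-7 cells infected with ZIKV at MOI 1 for 2 h at 37 °C, compounds added right after infection in duplicate at 50, 5 and 0.5 μM. Supernatants taken at 48 h and titrated by plaque assay on VERO E6 under carboxymethyl cellulose with crystal violet staining. % inhibition from PFU/mL versus DMSO-treated control; SI = CC50/EC50.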

The test system of series [18] is SARS-CoV-2 VR PV10734 (strain Milano). Kind of series: microbe, parasite or virus in culture. It counts as cell-based. Conditions: for selectivity index (SI): CC50/EC50; for EC50: Severe acute respiratory syndrome coronavirus 2.
Series [19] concerns MDA-MB-468 (breast cancer cell line). Kind of series: NCI-60 single-dose assay. It counts as cell-based, human. Conditions: Homo sapiens, MDA-MB-468, read-out: growth inhibition (GI%) and cytotoxicity (negative values). Put shortly:
as §1

For series [20], the system named is SN12C (renal cancer cell line). Kind of series: NCI-60 single-dose assay. The format is cell-based, human. Conditions: Homo sapiens, read-out: growth inhibition (GI%) and cytotoxicity (negative values). Put shortly: as §1
In series [21] the test system is RXF 393 (renal cancer cell line). Kind of series: NCI-60 single-dose assay. It counts as cell-based, human. Conditions: Homo sapiens, RXF 393, read-out: growth inhibition (GI%) and cytotoxicity (negative values). Put shortly:
as §1

Series [22] deals with T-47D (breast cancer cell line). Put plainly: NCI-60 single-dose assay. Conditions: Homo sapiens, T47D, read-out: growth inhibition (GI%) and cytotoxicity (negative values). The format is cell-based, human. Put shortly:
as §1

Setting [23] is: preliminary screening (50, 5, 0.5 μM), Huh-7, read-out: ZIKV/Huh‐7 EC50.
Setting [24] is: SARS-CoV-2, VERO TMPRSS cells, 24 h, full dose-response, read-out: EC50.
Where [25] appears, read: preliminary screening (50, 5, 0.5 μM), Vero TMPRSS, read-out: SARS‐CoV‐2/Vero TMPRSS EC50.
Setting [26] is: Huh-7, read-out: ZIKV/Huh‐7 EC50.

Like-named read-outs stand apart in the source and are kept apart here.

Usually inhibition stands for the share of the control response that was lost under treatment. As to `O=C(NCCN1CCN(c2ccccc2)CC1)c1c(Cl)[nH]c2c1CCCc1ccccc1-2` [Compound 12, 2-Chloro-N-(2-(4-phenylpiperazin-1-yl)ethyl)-1,4,5,6-tetrahydrobenzo[6,7]cyclohepta[1,2-b]pyrrole-3-carboxamide], the CC50 at 48 h in series [1] stood at 34.2 µM. For the same molecule, the inhibition at 10 µM is 70.9% in series [2]; under 60% in series [3]; under 60% in [4]; 65.5% in series [5]; under 60% in [6]; 65.8% in series [7]. In addition, the inhibition at 10 µM was under 60% in series [8]; under 60% in series [9]; under 60% in series [10]; under 60% in series [11]; 78.7% in the series with SR (leukemia cell line); 67.2% in series [12]. Moreover, the results for the CC50 in “in vitro [13]” and in the series “in vitro [15]” were 74.5 µM and 32.1 µM, respectively. In “in vitro [13]”, this molecule yielded a CC50 at 24 h of 72.8 µM. Further, the EC50 was found to be 3.49 µM in [14], 1.54 µM in [17] (setting [23]), 1.17 µM in series [18] (setting [24]) and 2.26 µM in series [18] (setting [25]). Besides, in [16], the “IAV/MDCK SI” value turned out to be 9.18. In addition, the “selectivity index (SI)” value in series [18] (SARS-CoV-2, VERO TMPRSS cells) is reported as 63.63.

In the case of `O=C(NCCN1CCN(c2ccc(Cl)cc2)CC1)c1c(Cl)[nH]c2c1CCCc1ccccc1-2` [Compound 13], the CC50 at 48 h in series [1] worked out at 57.9 µM. The inhibition at 10 µM in series [2] was 70.9%; in series [3] it was 67.4%; in series [4], under 60%; in series [5], 69.2%; in series [6] it was under 60%; in series [7] it was under 60%. In addition, the inhibition at 10 µM is 95.3% in [19]; under 60% in series [8]; under 60% in series [9]; 61.7% in series [10]; under 60% in series [11]; 70.7% with SR (leukemia cell line). Moreover, in series [12], the inhibition at 10 µM came to 69.6%. Besides, in “in vitro [13]”, the CC50 stood at 99 µM. In the series “in vitro [13]”, this molecule registered a CC50 at 24 h of 77.2 µM. The EC50 in [14] was 41.3 µM; in [17] (Huh-7, 48 h), 3.08 µM; in series [17] (setting [26]), 1.3 µM; in [18] (setting [24]) it was 0.66 µM; in [18] (setting [25]), over 0.5 µM. Besides, in series [16], the “IAV/MDCK SI” value was found to be 5.45. The “selectivity index (SI)” value in series [17] (ZIKV, Huh-7 cells, CC50/EC50) is given as 20.20; in [18] (SARS-CoV-2, VERO TMPRSS cells), 150.00.

The molecule `O=C(NCCN1CCN(c2ccccc2Cl)CC1)c1c(Cl)[nH]c2c1CCCc1ccccc1-2` [Compound 14] registered a CC50 at 48 h in series [1] of 30.2 µM. For the same molecule, the inhibition at 10 µM in series [2] is 70.3%; in series [3], 60.9%; in series [4], under 60%; in series [5], under 60%; in series [6], under 60%; in series [7], 66.5%. In addition, the inhibition at 10 µM in [19] was 82.4%; in series [8], under 60%; in series [9] it was under 60%; in [10], under 60%; in series [11], under 60%; in the series with SR (leukemia cell line), under 60%. In addition, the inhibition at 10 µM in [12] was determined as 71.7%. Also, in “in vitro [13]”, the CC50 at 24 h was 36.7 µM. The CC50 in “in vitro [15]” was found to be 15.6 µM. Also, the EC50 in series [17] (setting [23]) came to 4.74 µM.

`COc1ccccc1N1CCN(CCNC(=O)c2c(Cl)[nH]c3c2CCCc2ccccc2-3)CC1` [Compound 15] returned a CC50 at 48 h in [1] of 9.43 µM. The inhibition at 10 µM in series [2] is 92.7%; in [3], 70.1%; in [4], under 60%; in series [5], 79.4%; in [6], 60.6%; in series [20], under 60%. Also, the inhibition at 10 µM in series [7] is 65.2%; in series [19], 94.8%; in [8], 60.1%; in series [9] it was 67%; in series [10], 76.5%; in the series on SR (leukemia cell line) it was 95.5%. The inhibition at 10 µM in series [21] was under 60%; in series [12], 86.6%. Also, the “growth inhibition (GI%) and cytotoxicity (negative values)” value in series [11] (human) is −18.77%. The same molecule registered a CC50 at 24 h in the series “in vitro [13]” of 38 µM. The EC50 in series [14] is 17.7 µM; in series [17] (setting [26]) it was 4.74 µM; in [18] (setting [25]) it was 40.6 µM. For the same molecule, in the series “in vitro [15]”, the CC50 turned out to be 8.29 µM. The “IAV/MDCK SI” value in series [16] was determined as 0.47.

`N#Cc1ccccc1N1CCN(CCNC(=O)c2c(Cl)[nH]c3c2CCCc2ccccc2-3)CC1` [Compound 18, 2-Chloro-N-(2-(4-(2-cyanophenyl)piperazin-1-yl)ethyl)-1,4,5,6-tetrahydrobenzo[6,7]cyclohepta[1,2-b]pyrrole-3-carboxamide] gave a CC50 at 48 h in series [1] of 15.5 µM. For the same molecule, the inhibition at 10 µM in [2] was 75.3%; in [3], 69.1%; in [4], under 60%; in series [5], 64.2%; in [6], under 60%; in series [20], under 60%. Besides, the inhibition at 10 µM in series [7] was 70.1%; in [19], 98.7%; in [8] it was under 60%; in [9], under 60%; in series [10], 81.8%; in [11], under 60%. In addition, the inhibition at 10 µM was 74.2% with SR (leukemia cell line), under 60% in [21], 71.8% in series [22] and 74.3% in series [12]. Further, in the series “in vitro [13]”, the CC50 at 24 h was 35 µM. The values for the EC50 in [14] and in series [17] (setting [23]) were 49.4 µM and 4.11 µM, respectively. The same molecule yielded a CC50 in the series “in vitro [15]” of 13.9 µM. In [16], the “IAV/MDCK SI” value is listed as 0.28.

Values taken from article PMC12566046, “Arylpiperazinyl-Benzocycloheptapyrrole-Carboxamides Endowed with Dual Anticancer and Antiviral Activities” (Molecules, 2025).
